Here are results for twelve compounds from patent US12055553B2, “Method for diagnosing risk for inflammatory disease through glycan profiling” (The Regents of the University of California, priority 2017, dated 2024).

In assay [1] the test system is Caco-2 cells. Format: cell-based. To be noted: for change in sialylated glycans / change in fucosylated glycans / fucosylation: fucose 25 mM, butyrate 10 mM; for decrease in sialylated glycans collectively / increase in fucosylated glycans collectively: GlcNAc 25 mM, cell line not given; for change in fucosylated glycans / fucosylation: acetate, lactate; for fold decrease of Hex6HexNAc6Fuc1NeuAc3 / fold decrease of Hex7HexNAc7Fuc1NeuAc1 / fold increase of Hex6HexNAc6NeuAc1: Caco-2, SCFA 10 mM; for change in high mannose type glycans / change in the groups of cell surface glycans presented: treated vs untreated; for change in high mannose type glycans / decrease in fucosylated compounds: lactose 70 mg/L; for change in non-decorated complex/hybrid type N-glycans: galactose; for decrease in fucosylated compounds: high galactose; for change in the groups of cell surface glycans presented: glucose 25 mM, glutamate 2 mM, glutathione 2 mM. As to the method:
(§1) We examined whether supplementation of free monosacchaides derived from diet changes N-glycosylation outcomes on the intestinal cell-surface at concentrations relevant to physiological conditions. Changes in glycosylation were assessed by globally releasing glycans from membrane proteins extracted from fully differentiated (Caco-2) and partially differentiated (HT-29) intestinal epithelial cells and analyzing the mixture by porous graphitized carbon (PGC)-LC-MS. […] The glycan profile under normal growth conditions was used as a frame of reference with which to compare the glycome at varied environments.
(§2) Human colorectal adenocarcinoma Caco-2 cells derived from a person, were obtained from American Type Culture Collection (ATCC, VA) and grown in Eagle's Minimum Essential Medium (EMEM) supplemented with non-essential amino acids, 2 mM L-glutamine, 10% (v/v) fetal bovine serum (Life Technologies, NY), 1 mM sodium pyruvate, 1.5 g/L sodium bicarbonate, 100 U/mL penicillin, and 100 μg/mL streptomycin. Alternatively, Caco-2 cells were grown in Dulbecco's Modified Eagle's Medium (DMEM) supplemented with 10% (v/v) fetal bovine serum, 100 U/mL penicillin, and 100 μg/mL streptomycin. Human colorectal adenocarcinoma HT-29 cells, derived from a person, were obtained from ATCC and grown in McCoy's 5A medium supplemented with 10% (v/v) fetal bovine serum, 100 U/mL penicillin, and 100 μg/mL streptomycin. Cells were subcultured at 80% confluency and maintained at 37° C. in a humidified incubator with 5% CO=2. All treatments were added to the media after cell differentiation. Caco-2 cells were fully differentiated 14-days post-confluency. HT-29 cells were partially differentiated 4-days post-confluency. After 72 h, cells were collected in biological triplicates by scraping A fixed count of 2×10^6 viable cells was used for each experiment Passage number between experiments was controlled to no higher than P40 and a delta P of no more than 20. High passage cells were scraped after P80. Media was renewed three times a week unless specified. Monolayer integrity and quality of cell borders were evaluated under the microscope routinely during growth and before harvest.
(§3) In brief harvested cells were resuspended in homogenization buffer containing 0.25 M sucrose, 20 mM HEPES-KOH (pH 7.4), and 1:100 protease inhibitor (EMD Millipore, CA). Cell lysis was performed on ice using a probe sonicator (Qsonica, CT) with five alternating and on and off pulses in 5 and 10 s intervals, respectively. Lysates were […] at 2,000×g for 10 min to remove the nuclear fraction and cellular debris. The supernatant was collected and brought to 1 mL with homogenization buffer for ultracentrifugation at 200,000×g for 45 min at 4° C. The pallet was resuspended and repelleted by ultracentrifugation in 0.2 M Na2CO3 (pH 11) followed by water to fragment the endoplasmic reticulum and remove the cytoplasmic fraction, respectively. The resulting membrane faction was isolated and stored at −20° C. until further processing.
(§4) Membrane pellets were resuspended with 100 μL of 100 mM ammonium bicarbonate in 5 mM dithiothreitol and heated for 10 s at 100° C. to thermally denature the proteins. […] After addition of 400 μL of chilled ethanol, samples were placed in −80° C. for 1.5 h and centrifuged for 20 min at 21,130×g to precipitate residual deglycosylated proteins. The supernatant containing the released N-glycans was collected and dried. N-Glycans were purified by solid phase extraction containing a porous graphitized carbon (PGC) matrix. Eluted fractions were dried in vacuo.

Assay [2] concerns THP-1 cells. Briefly: Lectin array of THP-1 monocyte cell surface glycan composition after monosaccharide supplementation. It is filed as cell-based. Particulars: 3 days. The method, then: THP-1 cells (monocyte cell line) were incubated with different sugars (i.e. monosaccharides) for 3 days. Lectin arrays were used to detect changes in the cell surface glycan composition. Secreted HDL from the cell supernatant (monocytes secrete their own HDL) was isolated and then analyzed to determine the glycan composition.
• ConA (Concanavalin A): binds internal and nonreducing terminal α-D-mannosyl (αMan) and α-D-glucosyl groups (αGIc) • JAC (Jacalin): binds galactose-containing O-glycoproteins (Galβ3GalNac) • SNA (Sambucus nigra): binds sialic acid attached to terminal galactose in α-2,6 and to a lesser degree, α-2,3 linkage (Neu5Acα6Gal/GalNac) • AAL (Aleuria auanda lectin): binds fucose linked (α-1,6) to N-acetylglucosamine or to fucose linked (α-1,3) to N-acetyllactosamine related structures, exposed core (α-1, 6) and outer arm (α-1, 2 or α-1, 3) linked fucose moieties. Sugar Treatments: • L-fucose: Tested 2 doses: 300 umol/L (physiologic) and 100 mmol/L. (Marquardt T, Blood, December 15; 94(12):3976-85, 1999): Named L-Fuc Low and L-Fuc High • Fructose: Tested 2 doses: 27 mmol/L (physiologic) and 100 mmol/L. (Hui H, Pancreas, August 38(6): 706-12, 2009); Named Fruc Low and Fruc High • N-acetylglucosamine (GlcNAc): Tested 1 dose: 100 mmol/L. (Villiger TK, Controlling the time evolution of mAb N-finked glycosylation, Part I: Microbioreactor experiments, Biotechnol Prog, September; 32(5):1123-1134, 2016) • Galactose: The two doses for the galactose treatment in the glycan array experiments were: 150 mmol/L and 75 mmol/L. (Villiger TK, Controlling the time evolution of mAb N-linked glycosylation, Part II: Model-based predictions, Biotechnol Prog, September; 32(5):135-1148, 2016)

Assay [3] relates to HT-29 cells. Description: Cell surface N-glycan profiling (PGC-LC-MS) of HT-29 after supplementation. It is filed as cell-based, Human. To be noted: for change in high mannose type glycans: glutamate 2 mM; for change in the HT-29 glycome / major groups of glycans: acetate, lactate 10 mM, glutathione 2 mM. The method, then:
as §1, §2, §3, §4

Setting [4] is: Caco-2, 72 h, Ac5-Sia up to 10 mM, glutamine 10 mM.
The mark [5] stands for this setting: single dose (GlcNAc 100 mmol/L) or dose not distinguished.
The mark [6] stands for this setting: high dose (galactose 150 mmol/L, fructose 100 mmol/L, L-fucose 100 mmol/L).
Where [7] appears, read: low dose (galactose 75 mmol/L, fructose 27 mmol/L, L-fucose 300 umol/L).
The mark [8] stands for this setting: HT-29, 72 h, fructose 50 mM, glutamine 10 mM.

In the case of `CC(=O)N[C@H]1[C@H]([C@H](OC(C)=O)[C@@H](COC(C)=O)OC(C)=O)OC(OC(C)=O)(C(=O)O)C[C@@H]1OC(C)=O` (stereo partly drawn) [Ac5-Sia, 2,4,7,8,9-penta-O-acetyl N-acetylneuraminic acid], the “change in monofucosylated glycans” value in assay [1] (Ac5-Sia up to 10 mM, 72 h) is given as “significant increases”. Besides, in assay [1] (setting [4]), the “change in sialylated glycans” value is given as “remained relatively unchanged”.
Take `CC(=O)N[C@H]1C(O)O[C@H](CO)[C@H](O)[C@@H]1O` (stereo partly drawn) [GalNAc, N-acetylgalactosamine]: in assay [1] (72 h, GalNAc), the “decrease in sialylated glycans collectively” value was determined as 31.9% and the “increase in fucosylated glycans collectively” value was found to be 120%. For the same compound, in assay [1] (Caco-2, 72 h, fructose 50 mM, GalNAc), the “increase in abundance of non-decorated complex/hybrid type N-glycans” value is 234%. For the same compound, in assay [1] (GalNAc supplementation, 72 h), the “fold increase of Hex3HexNAc4Fuc1” value came to 13 fold and the “fold increase of Hex3HexNAc5Fuc1” value worked out at 7 fold.
As to `CC(=O)N[C@H]1C(O)O[C@H](CO)[C@@H](O)[C@@H]1O` (stereo partly drawn) [GlcNAc, N-acetylglucosamine], in assay [2] (setting [5]), the “AAL binding (fucosylated glycans)” value was “decreased”, the “ConA binding (glucose or mannose-terminated glycans)” value (from here on “ConA binding”) is reported as “decreased”, the “JAC binding (terminal galactose containing glycans)” value (“JAC binding” below) is listed as “decreased” and the “SNA binding (terminal sialic acid)” value was “did not change”. In assay [1] (72 h, GalNAc), the “decrease in sialylated glycans collectively” value was 53.9% and the “increase in fucosylated glycans collectively” value was 61.2%.
On to `CC(=O)O` [acetate], for which, in assay [1] (Caco-2, 72 h, glutamine 10 mM), the “change in fucosylated glycans / fucosylation” value was “significant increase”. Further, in assay [1] (72 h), the “fold decrease of Hex6HexNAc6Fuc1NeuAc3” value was 4.7 fold, the “fold decrease of Hex7HexNAc7Fuc1NeuAc1” value is 2.7 fold and the “fold increase of Hex6HexNAc6NeuAc1” value turned out to be 8.1 fold.
As for `CCCC(=O)O` [butyrate], in assay [3] (HT-29, butyrate 10 mM, 72 h), the “fold increase of each of Hex3HexNAc4Fuc1, Hex6HexNAc7Fuc1, Hex7HexNAc7Fuc1” value is on record as “more than 13 fold” and the increase in fucosylation came out at 262%.
Turning to `C[C@H](O)[C@@H](O)[C@@H](O)[C@H](O)C=O` [fucose, L-fucose], in assay [2] (setting [6]), the “AAL binding (fucosylated glycans)” value is “decreased”, the “ConA binding” value is recorded as “decreased”, the “JAC binding” value is “decreased” and the “SNA binding (terminal sialic acid)” value was “increased”. In assay [2] (setting [7]), the “AAL binding (fucosylated glycans)” value is “decreased”, the “ConA binding” value is recorded as “decreased”, the “JAC binding” value is reported as “decreased” and the “SNA binding (terminal sialic acid)” value was “increased”. Besides, the “change in sialylated glycans” value in assay [1] (setting [4]) is recorded as “overall decrease”. For the same compound, in assay [1] (Caco-2, 72 h, glutamine 10 mM), the “change in fucosylated glycans / fucosylation” value is on record as “neither the total levels nor the degree of fucosylation deviated significantly”.
As for `O=C[C@H](O)[C@@H](O)[C@@H](O)[C@H](O)CO` [galactose], in assay [2] (setting [6]), the “AAL binding (fucosylated glycans)” value is recorded as “increased”, the “ConA binding” value is on record as “increased”, the “JAC binding” value is given as “increased” and the “SNA binding (terminal sialic acid)” value is listed as “increased”. Moreover, in assay [2] (setting [7]), the “JAC binding” value is given as “decreased” and the “SNA binding (terminal sialic acid)” value is recorded as “increased”. Further, in assay [1] (Caco-2, 72 h, glutamine 10 mM), the “change in high mannose type glycans” value was “significant Increases” and the “change in non-decorated complex/hybrid type N-glycans” value was “significant Increases”. Also, the “decrease in fucosylated compounds” value in assay [1] (Caco-2, 72 h) is given as 20%. Further, the “decrease in relative abundances of fucosylated and sialylated glycans” value in assay [1] (Caco-2, galactose-treated, 72 h) is given as 12-28%. The “afucosylated glycans as share of all complex/hybrid glycans” value in assay [1] (galactose-treated Caco-2 (untreated 15%)) is reported as 46%. Moreover, the “asialylated glycans as share of all complex/hybrid glycans” value in assay [1] (galactose-treated Caco-2 (untreated 23%)) stood at 58%.
In the case of `N[C@@H](CCC(=O)O)C(=O)O` [glutamate], in assay [3] (setting [8]), the “change in high mannose type glycans” value is recorded as “unperturbed”. Moreover, the “decline in fucosylation with respect to the control” value in assay [3] (HT-29, glutamate 2 mM, 72 h) was determined as 44.4%. Moreover, the “change in the groups of cell surface glycans presented” value in assay [1] (Caco-2, 72 h) was “relatively unaffected”.
As to `NC(=O)CC[C@H](N)C(=O)O` [glutamine, L-glutamine], in assay [3] (setting [8]), the “change in fucosylated glycans” value is reported as “significant increases” and the “change in high mannose type glycans” value is given as “significant increases”. Also, the “change in non-decorated complex/hybrid types of glycans” value in assay [3] (HT-29, glutamine 10 mM, 72 h) is listed as “significant increases”. Moreover, in assay [1] (Caco-2, 72 h, glutamine 10 mM), the “change in high mannose type glycans” value is given as “significant increases”, the “change in fucosylated glycans / fucosylation” value is on record as “significant increases” and the “change in non-decorated complex/hybrid type N-glycans” value is “significant increases”. In addition, the “increase in abundance of high mannose type N-glycans” value in assay [1] (Caco-2, 72 h, fructose 50 mM, glutamine 10 mM) turned out to be 507%. Besides, the “change in sialylated glycans” value in assay [1] (setting [4]) was “remarkable constancy”. Further, the “fold increase of each of Man 5-Man 9” value in assay [1] (Caco-2, glutamine 10 mM, 72 h) is recorded as “more than 6 fold”.
In the case of `N[C@@H](CCC(=O)N[C@@H](CS)C(=O)NCC(=O)O)C(=O)O` [glutathione], the “change in the HT-29 glycome / major groups of glycans” value in assay [3] (HT-29, 72 h) was “essentially unaltered”. Besides, the “increase in high mannose type glycans” value in assay [3] (HT-29, glutathione 2 mM, 72 h) was 37.1%. In assay [1] (Caco-2, 72 h), the “change in the groups of cell surface glycans presented” value is recorded as “essentially unaltered”.
In the case of `CC(O)C(=O)O` (stereo not drawn) [lactate], the “change in the HT-29 glycome / major groups of glycans” value in assay [3] (HT-29, 72 h) is “minimal effects”. In assay [1] (Caco-2, 72 h, glutamine 10 mM), the “change in fucosylated glycans / fucosylation” value is recorded as “significant increase”. In addition, in assay [1] (72 h), the “fold decrease of Hex6HexNAc6Fuc1NeuAc3” value came out at 3.7 fold, the “fold decrease of Hex7HexNAc7Fuc1NeuAc1” value was determined as 3.4 fold and the “fold increase of Hex6HexNAc6NeuAc1” value is recorded as 10 fold.
In the case of `OC[C@H]1O[C@@H](O[C@H]2[C@H](O)[C@@H](O)C(O)O[C@@H]2CO)[C@H](O)[C@@H](O)[C@H]1O` (stereo partly drawn) [lactose], the “change in high mannose type glycans” value in assay [1] (Caco-2, 72 h, glutamine 10 mM) was “did not cause dramatic changes”. In addition, the “decrease in fucosylated compounds” value in assay [1] (Caco-2, 72 h) was determined as 20%.
